From ChEMBL document CHEMBL1121780, “Synthesis and antiarrhythmic activity of new benzofuran derivatives” (J Med Chem, 1981)
Where “and” joins values, the source holds several entries; their conditions need not be identical. Equal entries are not always repeated. Calls of active or inactive are those of the source. The calls are words filed in the database; no cut-off is given here.

How the values were obtained:
Canis familiaris [1] = species on record: Canis familiaris; experiment: Duration for the sinus rhythm recovery was measured; format: functional, Canis lupus familiaris
Canis familiaris [2] = experiment: Activity against ouabain-induced ventricular arrhythmia was measured as percent of sinus rhythm recovery at dose of 2.5 mg/kg iv; format: functional, Canis lupus familiaris, Cardiac ventricle
Canis familiaris [3] = experiment: Activity against harris coronary ligation induced ventricular arrhythmia was measured as percent of initial sinus complexes after dose mg/kg, iv=6; Inactive; format: functional, organism-based; conditions: Canis lupus familiaris; Cardiac ventricle
[4] = Toxicity estimated in mouse as LD50 by intravenous administration; format: organism-based; conditions: in vivo
Canis familiaris [5] = species on record: Canis familiaris; experiment: Duration for the antiarrhythmic activity was measured; format: functional, Canis lupus familiaris, Heart
Canis familiaris [6] = experiment: Activity against harris coronary ligation induced ventricular arrhythmia was measured as percent of initial sinus complexes after dose 10 mg/kg, iv; format: functional, Canis lupus familiaris, Cardiac ventricle
Canis familiaris [7] = experiment: Activity against harris coronary ligation induced ventricular arrhythmia was measured as percent of initial sinus complexes after dose 5 mg/kg, iv; format: functional, Canis lupus familiaris, Cardiac ventricle
Canis familiaris [8] = experiment: Activity against ouabain-induced ventricular arrhythmia was measured as percent of sinus rhythm recovery at dose of 5 mg/kg iv; format: functional, Canis lupus familiaris, Cardiac ventricle
Canis familiaris [9] = experiment: Activity against harris coronary ligation induced ventricular arrhythmia was measured as percent of final sinus complexes after dose 5 mg/kg, iv; format: functional, Canis lupus familiaris, Cardiac ventricle
Canis familiaris [10] = experiment: Activity against harris coronary ligation induced ventricular arrhythmia was measured as percent of final sinus complexes after dose 10 mg/kg, iv; format: functional, Canis lupus familiaris, Cardiac ventricle
Canis familiaris [11] = experiment: Activity against ouabain-induced ventricular arrhythmia was measured as percent of sinus rhythm recovery at dose of 6 mg/kg iv; format: functional, Canis lupus familiaris, Cardiac ventricle
Canis familiaris [12] = species on record: Canis familiaris; experiment: Duration for the antiarrhythmic activity was measured; 10-60; format: functional, Canis lupus familiaris, Heart
Canis familiaris [13] = experiment: Activity against harris coronary ligation induced ventricular arrhythmia was measured as percent of initial sinus complexes after dose 2 mg/kg iv; format: organism-based, Canis lupus familiaris, Cardiac ventricle; parameters: dose 2 mg/kg, route intravenous; conditions: dog, in vivo
Canis familiaris [14] = experiment: Activity against ouabain-induced ventricular arrhythmia was measured as percent of sinus rhythm recovery at dose of 1 mg/kg iv; format: functional, Canis lupus familiaris, Cardiac ventricle
Canis familiaris [15] = experiment: Activity against harris coronary ligation induced ventricular arrhythmia was measured as percent of final sinus complexes after dose 2 mg/kg, iv; format: functional, Canis lupus familiaris, Cardiac ventricle
Canis familiaris [16] = experiment: Activity against harris coronary ligation induced ventricular arrhythmia was measured as percent of initial sinus complexes after dose 1 mg/kg iv; format: functional, Canis lupus familiaris, Cardiac ventricle
Canis familiaris [17] = experiment: Activity against harris coronary ligation induced ventricular arrhythmia was measured as percent of final sinus complexes after dose 1 mg/kg iv; format: functional, Canis lupus familiaris, Cardiac ventricle
Canis familiaris [18] = experiment: Activity against harris coronary ligation induced ventricular arrhythmia was measured as percent of initial sinus complexes after dose mg/kg, iv=25; format: functional, Canis lupus familiaris, Cardiac ventricle
Canis familiaris [19] = experiment: Activity against harris coronary ligation induced ventricular arrhythmia was measured as percent of initial sinus complexes after dose 10 mg/kg iv; format: functional, Canis lupus familiaris, Cardiac ventricle
Canis familiaris [20] = experiment: Activity against ouabain-induced ventricular arrhythmia was measured as percent of sinus rhythm recovery at dose of 10 mg/kg iv; format: functional, Canis lupus familiaris, Cardiac ventricle
Canis familiaris [21] = experiment: Activity against harris coronary ligation induced ventricular arrhythmia was measured as percent of initial sinus complexes after dose mg/kg, iv=12.5; format: functional, Canis lupus familiaris, Cardiac ventricle
Canis familiaris [22] = experiment: Activity against harris coronary ligation induced ventricular arrhythmia was measured as percent of final sinus complexes after dose mg/kg, iv; format: functional, Canis lupus familiaris, Cardiac ventricle
Canis familiaris [23] = experiment: Activity against harris coronary ligation induced ventricular arrhythmia was measured as percent of final sinus complexes after dose 10 mg/kg iv; format: functional, Canis lupus familiaris, Cardiac ventricle
[24] = Toxicity was estimated in mouse as LD50 by intravenous administration; LD50 = 200(30%); format: organism-based; conditions: in vivo
Canis familiaris [25] = experiment: Activity against ouabain-induced ventricular arrhythmia was measured as percent of sinus rhythm recovery at dose of 8 mg/kg iv; format: functional, Canis lupus familiaris, Cardiac ventricle
Canis familiaris [26] = experiment: Activity against harris coronary ligation induced ventricular arrhythmia was measured as percent of initial sinus complexes after dose 2.5 mg/kg, iv; format: functional, Canis lupus familiaris, Cardiac ventricle
Canis familiaris [27] = experiment: Activity against harris coronary ligation induced ventricular arrhythmia was measured as percent of initial sinus complexes after dose 25 mg/kg, po; format: functional, Canis lupus familiaris, Cardiac ventricle
Canis familiaris [28] = experiment: Activity against ouabain-induced ventricular arrhythmia was measured as percent of sinus rhythm recovery at dose of 2 mg/kg iv; format: functional, Canis lupus familiaris, Cardiac ventricle
Canis familiaris [29] = experiment: Activity against harris coronary ligation induced ventricular arrhythmia was measured as percent of initial sinus complexes after dose 12.5 mg/kg, po; format: functional, Canis lupus familiaris, Cardiac ventricle
Canis familiaris [30] = experiment: Activity against harris coronary ligation induced ventricular arrhythmia was measured as percent of initial sinus complexes after dose 6.25 mg/kg, po; format: functional, Canis lupus familiaris, Cardiac ventricle
Canis familiaris [31] = experiment: Activity against harris coronary ligation induced ventricular arrhythmia was measured as percent of final sinus complexes after dose 25 mg/kg, po; format: functional, Canis lupus familiaris, Cardiac ventricle
Canis familiaris [32] = experiment: Activity against harris coronary ligation induced ventricular arrhythmia was measured as percent of final sinus complexes after dose 6.25 mg/kg, po; format: functional, Canis lupus familiaris, Cardiac ventricle
Canis familiaris [33] = experiment: Activity against harris coronary ligation induced ventricular arrhythmia was measured as percent of final sinus complexes after dose 12.5 mg/kg, po; format: functional, Canis lupus familiaris, Cardiac ventricle
Canis familiaris [34] = experiment: Activity against harris coronary ligation induced ventricular arrhythmia was measured as percent of final sinus complexes after dose 2.5 mg/kg, iv; format: functional, Canis lupus familiaris, Cardiac ventricle
Canis familiaris [35] = experiment: Activity against ouabain-induced ventricular arrhythmia was measured as percent of sinus rhythm recovery at the dose of 2 mg/kg iv; format: functional, Canis lupus familiaris, Cardiac ventricle
Canis familiaris [36] = experiment: Activity against harris coronary ligation induced ventricular arrhythmia was measured as percent of initial sinus complexes after dose 25 mg/kg po; format: functional, Canis lupus familiaris, Cardiac ventricle
Canis familiaris [37] = experiment: Activity against harris coronary ligation induced ventricular arrhythmia was measured as percent of initial sinus complexes after dose 5 mg/kg iv; format: functional, Canis lupus familiaris, Cardiac ventricle
Canis familiaris [38] = experiment: Activity against harris coronary ligation induced ventricular arrhythmia was measured as percent of final sinus complexes after dose 5 mg/kg iv; format: functional, Canis lupus familiaris, Cardiac ventricle
Canis familiaris [39] = experiment: Activity against harris coronary ligation induced ventricular arrhythmia was measured as percent of final sinus complexes after dose 25 mg/kg po; format: functional, Canis lupus familiaris, Cardiac ventricle

For COc1c(NC(C)=O)c(OCCN2CCCCC2)c(OC)c2occc12, the Duration (Canis familiaris [1]) was >50 min, the SRR (Canis familiaris [2]) was 100% and the ISC (Canis familiaris [3]) was “inactive”. The LD50 [4] was 52 mg/kg.

In the case of CNC(=O)Nc1c(OCCN2CCN(C)CC2)c(OC)c2occc2c1OC, the Duration (Canis familiaris [5]) is reported as 30 min and <30 min, the Duration (Canis familiaris [1]) is reported as 120 min and the ISC (Canis familiaris [6]) is reported as 18%. It also gave an ISC (Canis familiaris [7]) of 1%, an SRR (Canis familiaris [8]) of 100% and an FSC (Canis familiaris [9]) of 50%. For the same molecule, the FSC (Canis familiaris [10]) was 98% and the LD50 [4] was 145 mg/kg.

In the case of COc1c(NC(C)=O)c(OCCNC(C)C)c(OC)c2occc12, the Duration (Canis familiaris [1]) is reported as <30 min, the SRR (Canis familiaris [11]) is reported as 33% and the LD50 [4] is reported as 88 mg/kg.

In the case of CNC(=O)Nc1c(OCCN(C)C)c(OC)c2occc2c1OC, the Duration (Canis familiaris [1]) is reported as 30 min, the Duration (Canis familiaris [12]) is reported as 10 min and the ISC (Canis familiaris [13]) is reported as 5%. It also gave an SRR (Canis familiaris [14]) of 100%, an FSC (Canis familiaris [15]) of 20% and an LD50 [4] of 100 mg/kg.

For COc1c(NC(=O)OC(C)C)c(OCCN2CCCCC2)c(OC)c2occc12, the Duration (Canis familiaris [5]) was 10 min, the Duration (Canis familiaris [1]) was >100 min and the ISC (Canis familiaris [16]) was 30%. For the same molecule, the SRR (Canis familiaris [14]) was 100%, the FSC (Canis familiaris [17]) was 50% and the LD50 [4] was 10 mg/kg.

In the case of C=C[C@H]1CN2CC[C@H]1C[C@@H]2[C@@H](O)c1ccnc2ccc(OC)cc12 [QUINIDINE], the Duration (Canis familiaris [5]) is reported as >90 min and 120 min and 240 min, the Duration (Canis familiaris [1]) is reported as 60 min and the ISC (Canis familiaris [18]) is reported as 9%. For the same molecule, the ISC (Canis familiaris [19]) was 5%, the SRR (Canis familiaris [20]) was 50% and the ISC (Canis familiaris [21]) was 9%. The FSC (Canis familiaris [22]) was 25% and 56%, the FSC (Canis familiaris [23]) was 67% and the LD50 [4] was 89 mg/kg.

With COc1c(NC(C)=O)c(OCCN2CCN(C)CC2)c(OC)c2occc12 the Duration (Canis familiaris [1]) was <30 min, the SRR (Canis familiaris [20]) was 66% and the LD50 [24] was 200 mg/kg.

For CNC(=O)Nc1c(OC)c2c(c(OC)c1OCCN1CCCCC1)OCC2, the Duration (Canis familiaris [1]) was <30 min, the SRR (Canis familiaris [25]) was 100% and the LD50 [4] was 180 mg/kg.

With CNC(=O)Nc1c(OCCN2CCCCC2)c(OC)c2occc2c1OC [MUROCAINIDE] the Duration (Canis familiaris [1]) was >60 min, the ISC (Canis familiaris [26]) was 3% and the ISC (Canis familiaris [27]) was 13%. The SRR (Canis familiaris [28]) was 100%, the ISC (Canis familiaris [29]) was 5% and the ISC (Canis familiaris [7]) was 14%. It also gave an ISC (Canis familiaris [30]) of 1%, an FSC (Canis familiaris [31]) of 98% and an FSC (Canis familiaris [9]) of 85%. For the same molecule, the FSC (Canis familiaris [32]) was 14%, the FSC (Canis familiaris [33]) was 90% and the FSC (Canis familiaris [34]) was 45%. For the same molecule, the LD50 [4] was 50 mg/kg.

CNC(=O)Nc1c(OCCN2CCCCC2)cc2occc2c1OC showed an SRR (Canis familiaris [35]) of 100% and an LD50 [4] of 100 mg/kg.

For CC(C)N(CCC(C(N)=O)(c1ccccc1)c1ccccn1)C(C)C (stereo not given) [DISOPYRAMIDE], the Duration (Canis familiaris [5]) was 60 min and 180 min, the Duration (Canis familiaris [1]) was 25 min and the ISC (Canis familiaris [36]) was 1%. The ISC (Canis familiaris [37]) was 19%, the SRR (Canis familiaris [8]) was 100% and the FSC (Canis familiaris [38]) was 100%. The FSC (Canis familiaris [39]) was 100% and the LD50 [4] was 60 mg/kg.
